pIC50: −log10 of the molar value.
Assays:
HEL 92.1.7 cells = test: Cell proliferation assay (CellTiter-Glo), HEL 92.1.7; format: cell-based; conditions: Homo sapiens, read-out: EC50 (μM) HEL 92.1.7
Procedure: HEL 92.1.7 cells (ATTC No. TIB-180, an erythroleukemia line derived from malignant peripheral blood), MV4-11 cells (ATCC No. CRL-9591, a human acute monocytic leukemia line) and PC3 cells (ATCC No. CRL-1435, a human prostatic adenocarcinoma line) were cultured in RPMI1640 supplemented with 10% FBS, sodium pyruvate and antibiotics. Cells were plated in the same medium at a density of 1000 cells per well into 96 well tissue culture plates, with outside wells vacant, on the day of assay.
Test compounds supplied in DMSO were diluted into DMSO at 500 times the desired final concentrations before dilution into culture media to 2 times final concentrations. Equal volumes of 2× compounds were added to the cells in 96 well plates and incubated at 37° C. for 3 days.
After 3 days plates were equilibrated to room temperature and equal volume of CellTiter-Glow Reagent (Promega) was added to the culture wells. The plates were agitated briefly and luminescent signal was measured with luminometer. The percent inhibition of the signal seen in cells treated with DMSO alone vs. cells treated with control compound was calculated and used to determine EC50 values (i.e., the concentration of a test compound that is required to obtain 50% of the maximum effect in the cells) for tested compounds, as shown in Example 763.

Pim1 kinase = Pim1 kinase (Homo sapiens, UniProt P11309); test: Pim1 ATP depletion assay; format: biochemical; conditions: Pim1 ATP depletion assay; read-out: IC50 (μM) PIM1;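 note: Luciferase-luciferin luminescence readout of residual ATP after PIM1 transfers phosphate to a peptide substrate, 40 µM ATP added, reaction run to roughly half ATP consumption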
Pim2 kinase = Pim2 kinase (Homo sapiens, UniProt Q9P1W9); test: Pim2 ATP depletion assay; format: biochemical; conditions: read-out: IC50 (μM) PIM2;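 note: Luciferase-based luminescent readout of ATP remaining after PIM2 phosphorylates a BAD peptide, final 5 nM enzyme, 4 µM ATP, 10 µM peptide, 2.5% DMSO, run to roughly half ATP consumption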
Pim3 kinase = Pim3 kinase (Homo sapiens, UniProt Q86V86); test: Pim3 ATP depletion assay; format: biochemical; conditions: read-out: IC50 (μM) PIM3
[1] = biological target: T1, human full length PKCE enzyme (Homo sapiens, UniProt Q02156); test: In vitro PKCE assay; format: biochemical; conditions: 10 nM enzyme, 40 uM peptide substrate, 20 uM ATP, KinaseGlo Plus readout; read-out: PKCε IC50
T1 construct: human full length PKCE enzyme purchased from InVitrogen; purchased InVitrogen
T1 sequence (Q02156 1-737): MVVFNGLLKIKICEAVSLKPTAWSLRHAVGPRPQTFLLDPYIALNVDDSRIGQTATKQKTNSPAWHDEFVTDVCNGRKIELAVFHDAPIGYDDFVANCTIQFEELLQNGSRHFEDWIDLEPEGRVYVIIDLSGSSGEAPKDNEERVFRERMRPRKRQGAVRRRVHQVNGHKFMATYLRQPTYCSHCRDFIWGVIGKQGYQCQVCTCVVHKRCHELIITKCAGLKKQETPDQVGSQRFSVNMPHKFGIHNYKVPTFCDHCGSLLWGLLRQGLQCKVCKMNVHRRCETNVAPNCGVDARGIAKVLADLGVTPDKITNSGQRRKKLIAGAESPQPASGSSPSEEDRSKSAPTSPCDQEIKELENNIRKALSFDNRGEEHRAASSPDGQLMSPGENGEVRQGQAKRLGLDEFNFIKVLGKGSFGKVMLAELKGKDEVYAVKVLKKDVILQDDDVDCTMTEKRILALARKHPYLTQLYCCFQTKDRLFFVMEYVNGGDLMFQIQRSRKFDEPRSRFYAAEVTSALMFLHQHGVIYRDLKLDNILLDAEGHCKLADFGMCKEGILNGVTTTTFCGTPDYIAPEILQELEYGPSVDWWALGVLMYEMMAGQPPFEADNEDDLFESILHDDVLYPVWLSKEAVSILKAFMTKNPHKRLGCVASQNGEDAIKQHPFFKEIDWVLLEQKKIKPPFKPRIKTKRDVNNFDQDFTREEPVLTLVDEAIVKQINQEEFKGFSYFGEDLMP

Sequence of Pim1 kinase (P11309 whole entry): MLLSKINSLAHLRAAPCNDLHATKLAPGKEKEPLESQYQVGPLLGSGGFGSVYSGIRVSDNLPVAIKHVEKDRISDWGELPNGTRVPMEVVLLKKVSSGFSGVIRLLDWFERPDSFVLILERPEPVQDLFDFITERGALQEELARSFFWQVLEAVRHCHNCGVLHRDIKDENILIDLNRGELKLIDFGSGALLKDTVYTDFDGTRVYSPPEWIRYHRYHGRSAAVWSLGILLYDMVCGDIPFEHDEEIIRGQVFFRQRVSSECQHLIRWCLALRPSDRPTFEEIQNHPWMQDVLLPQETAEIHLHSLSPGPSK
Sequence of Pim2 kinase (Q9P1W9 whole entry): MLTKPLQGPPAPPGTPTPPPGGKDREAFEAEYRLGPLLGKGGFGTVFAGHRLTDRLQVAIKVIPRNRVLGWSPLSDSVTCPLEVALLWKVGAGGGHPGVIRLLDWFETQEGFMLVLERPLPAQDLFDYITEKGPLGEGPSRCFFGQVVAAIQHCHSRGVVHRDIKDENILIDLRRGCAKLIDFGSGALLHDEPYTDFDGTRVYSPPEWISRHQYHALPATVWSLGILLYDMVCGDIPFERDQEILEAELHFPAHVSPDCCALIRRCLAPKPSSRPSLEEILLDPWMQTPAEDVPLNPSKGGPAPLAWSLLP

| SMILES | IC50 (Pim1 kinase) [µM] | IC50 (Pim2 kinase) [µM] | IC50 (Pim3 kinase) [µM] | pIC50 [1] | EC50 (HEL 92.1.7 cells) [µM] |
| --- | --- | --- | --- | --- | --- |
| Nc1nccnc1C(=O)Nc1[nH]c(=O)ncc1N1CCCC(C(F)(F)F)C1 (centres unmarked) [Example 146, 3-amino-N-{2-oxo-5-[3-(trifluoromethyl)piperidin-1-yl]-2,3-dihydropyrimidin-4-yl}-pyrazine-2-carboxamide] | < 1 | < 1 | < 1 | > 6.00 | > 10 |
| Nc1ncc(Br)nc1C(=O)Nc1[nH]c(=O)ncc1N1CCCC(C(F)(F)F)C1 (centres unmarked) [Example 147, 3-amino-6-bromo-N-{2-oxo-5-[3-(trifluoromethyl)piperidin-1-yl]-2,3-dihydropyrimidin-4-yl}-pyrazine-2-carboxamide] | < 1 | < 1 | < 1 | > 6.00 | 5 to 10 |
| Nc1nc(N)c(C(=O)Nc2[nH]c(=O)ncc2N2CCCC(C(F)(F)F)C2)nc1Cl (centres unmarked) [Example 148, 3,5-diamino-6-chloro-N-{2-oxo-5-[3-(trifluoromethyl)piperidin-1-yl]-2,3-dihydropyrimidin-4-yl}pyrazine-2-carboxamide] | < 1 | < 1 | < 1 | 4.60 to 5.00 | > 10 |
| Nc1ncc(Br)nc1C(=O)Nc1[nH]c(=O)ncc1N1CCC(F)CC1 [Example 150, 3-amino-6-bromo-N-[5-(4-fluoropiperidin-1-yl)-2-oxo-2,3-dihydropyrimidin-4-yl]pyrazine-2-carboxamide] | < 1 | < 1 | < 1 | 5.00 to 6.00 | 1 to 5 |
| Nc1nc(N)c(C(=O)Nc2[nH]c(=O)ncc2N2CCC(F)CC2)nc1Cl [Example 151, 3,5-diamino-6-chloro-N-[5-(4-fluoropiperidin-1-yl)-2-oxo-2,3-dihydropyrimidin-4-yl]pyrazine-2-carboxamide] | < 1 | < 1 | < 1 | < 4.60 | > 10 |
| Nc1ncc(Br)nc1C(=O)Nc1[nH]c(=O)ncc1N1CCCC(F)C1 (centres unmarked) [Example 155, 3-amino-6-bromo-N-[5-(3-fluoropiperidin-1-yl)-2-oxo-2,3-dihydropyrimidin-4-yl]pyrazine-2-carboxamide] | < 1 | < 1 | < 1 | 5.00 to 6.00 | 5 to 10 |
| Nc1ncc(Br)nc1C(=O)Nc1[nH]c(=O)ncc1N1CCC(F)(F)CC1 [Example 157, 3-amino-6-bromo-N-[5-(4,4-difluoropiperidin-1-yl)-2-oxo-2,3-dihydropyrimidin-4-yl]-pyrazine-2-carboxamide] | < 1 | < 1 | < 1 | < 4.60 | > 10 |
| Nc1nc(N)c(C(=O)Nc2[nH]c(=O)ncc2N2CCCC(F)C2)nc1Cl (centres unmarked) [Example 160, 3,5-diamino-6-chloro-N-[5-(3-fluoropiperidin-1-yl)-2-oxo-2,3-dihydropyrimidin-4-yl]pyrazine-2-carboxamide] | < 1 | < 1 | < 1 | < 4.60 | > 10 |

Second part, led by results:

| IC50 (Pim1 kinase) [µM] | IC50 (Pim2 kinase) [µM] | IC50 (Pim3 kinase) [µM] | pIC50 [1] | SMILES | EC50 (HEL 92.1.7 cells) [µM] |
| --- | --- | --- | --- | --- | --- |
| < 1 | < 1 | < 1 | > 6.00 | NCC(=O)N1CCN(c2ccncc2NC(=O)c2nc(Br)cnc2N)CC1 [Example 179, 3-amino-N-{4-[4-(aminoacetyl)-piperazin-1-yl]pyridin-3-yl}-6-bromopyrazine-2-carboxamide] | 1 to 5 |
| < 1 | < 1 | < 1 | > 6.00 | NCC1CCCN(c2ccncc2NC(=O)c2nc(Br)cnc2N)C1 (centres unmarked) [Example 180, 3-amino-N-{4-[3-(amino-methyl)piperidin-1-yl]pyridin-3-yl}-6-bromopyrazine-2-carboxamide] | < 1 |
| < 1 | < 1 | < 1 | > 6.00 | Nc1ncc(Br)nc1C(=O)Nc1[nH]c(=O)ncc1N1CCCC(N)C1 (centres unmarked) [Example 239, 3-amino-N-[5-(3-aminopiperidin-1-yl)-2-oxo-2,3-dihydro-pyrimidin-4-yl]-6-bromo-pyrazine-2-carboxamide] | > 10 |
| < 1 | < 1 | < 1 | > 6.00 | Nc1ncc(-c2ccccc2Cl)nc1C(=O)Nc1cnccc1N1CCCC(N)C1 (centres unmarked) [Example 346, 3-amino-6-(2-chloro-phenyl)-pyrazine-2-carboxylic acid (3-amino-3,4,5,6-tetrahydro-2H-[1,4′]bipyridinyl-3′-yl)-amide] | < 1 |
| < 1 | < 1 | < 1 | > 6.00 | Nc1ncc(-c2ccccc2OC(F)(F)F)nc1C(=O)Nc1cnccc1N1CCCC(N)C1 (centres unmarked) [Example 347, 3-amino-6-(2-trifluoro-methoxy-phenyl)-pyrazine-2-carboxylic acid (3-amino-3,4,5,6-tetrahydro-2H-[1,4′]bi-pyridinyl-3′-yl)-amide] | < 1 |
| < 1 | < 1 | < 1 | 5.00 to 6.00 | COc1ccccc1-c1cnc(N)c(C(=O)Nc2cnccc2N2CCCC(N)C2)n1 (centres unmarked) [Example 349, 3-amino-6-(2-methoxy-phenyl)-pyrazine-2-carboxylic acid (3-amino-3,4,5,6-tetra-hydro-2H-[1,4′]bipyridinyl-3′-yl)-amide] | < 1 |
| < 1 | < 1 | < 1 | > 6.00 | Nc1ncc(-c2ccccc2F)nc1C(=O)Nc1cnccc1N1CCCC(N)C1 (centres unmarked) [Example 350, 3-amino-6-(2-fluoro-phenyl)-pyrazine-2-carboxylic acid (3-amino-3,4,5,6-tetrahydro-2H-[1,4′]bipyridinyl-3′-yl)-amide] | < 1 |
| < 1 | < 1 | < 1 | > 6.00 | Nc1ncc(-c2cccc(Cl)c2)nc1C(=O)Nc1cnccc1N1CCCC(N)C1 (centres unmarked) [Example 352, 3-amino-6-(3-chloro-phenyl)-pyrazine-2-carboxylic acid (3-amino-3,4,5,6-tetrahydro-2H-[1,4′]bipyridinyl-3′-yl)-amide] | < 1 |
| < 1 | < 1 | < 1 | > 6.00 | Nc1ncc(-c2ccc(Cl)cc2)nc1C(=O)Nc1cnccc1N1CCCC(N)C1 (centres unmarked) [Example 353, 3-amino-6-(4-chloro-phenyl)-pyrazine-2-carboxylic acid (3-amino-3,4,5,6-tetrahydro-2H-[1,4′]bipyridinyl-3′-yl)-amide] | < 1 |
| < 1 | < 1 | < 1 | 5.00 to 6.00 | Nc1ncc(-c2cn[nH]c2)nc1C(=O)Nc1cnccc1N1CCCC(N)C1 (centres unmarked) [Example 355, 3-amino-6-(1H-pyrazol-4-yl)-pyrazine-2-carboxylic acid (3-amino-3,4,5,6-tetrahydro-2H-[1,4′]bipyridinyl-3′-yl)-amide] | > 10 |
| < 1 | < 1 | < 1 | 5.00 to 6.00 | Nc1ncc(-c2cccnc2)nc1C(=O)Nc1cnccc1N1CCCC(N)C1 (centres unmarked) [Example 356, 3-amino-6-pyridin-3-yl-pyrazine-2-carboxylic acid (3-amino-3,4,5,6-tetrahydro-2H-[1,4′]bipyridinyl-3′-yl)-amide] | > 10 |
